Reference: patent publication US6054435A, “6-O-substituted macrolides having antibacterial activity” (priority 1999, dated 2000)
≈ marks a conversion by molar mass, not a printed value.

Assays:
Experiment in all cases: in vitro antibacterial activity (MIC), agar dilution
Format in all cases: cell-based
Escherichia coli SS = settings: organism code RR; BHI agar, 35-37° C., 20 to 24 hours; unit assumed
Protocol: (§1) Representative compounds of the present invention were assayed in vitro for antibacterial activity as follows: Twelve petri dishes containing successive aqueous dilutions of the test compound mixed with 10 mL of sterilized Brain Heart Infusion (BHI) agar (Difco 0418-01-5) were prepared. Each plate was inoculated with 1:100 (or 1:10 for slow-growing strains, such as Micrococcus and Streptococcus) dilutions of up to 32 different microorganisms, using a Steers replicator block. […] In addition, a control plate, using BHI agar containing no test compound, was prepared and incubated at the beginning and end of each test.
(§2) An additional plate containing a compound having known susceptibility patterns for the organisms being tested and belonging to the same antibiotic class as the test compound was also prepared and incubated as a further control, as well as to provide test-to-test comparability.
(§3) After incubation, each plate was visually inspected. The minimum inhibitory concentration (MIC) was defined as the lowest concentration of drug yielding no growth, a slight haze, or sparsely isolated colonies on the inoculum spot as compared to the growth control.

[1] = system: Micrococcus luteus ATCC 4698; settings: organism code PP; BHI agar, 35-37° C., 20 to 24 hours; unit assumed
Protocol: as §1, §2, §3

[2] = system: Staphylococcus aureus ATCC 6538P; settings: organism code AA; BHI agar, 35-37° C., 20 to 24 hours; unit assumed
Protocol: as §1, §2, §3

[3] = system: Staphylococcus aureus NCTC10649M; settings: organism code EE; BHI agar, 35-37° C., 20 to 24 hours; unit assumed
Protocol: as §1, §2, §3

[4] = system: Staphylococcus epidermidis 3519; settings: organism code HH; BHI agar, 35-37° C., 20 to 24 hours; unit assumed
Protocol: as §1, §2, §3

[5] = system: Streptococcus pyogenes PIU 2548; settings: organism code NN; BHI agar, 35-37° C., 20 to 24 hours; unit assumed
Protocol: as §1, §2, §3

[6] = system: Enterococcus faecium ATCC 8043; settings: organism code II; BHI agar, 35-37° C., 20 to 24 hours; unit assumed
Protocol: as §1, §2, §3

[7] = system: Nocardia Asteroides ATCC9970; settings: organism code VV; BHI agar, 35-37° C., 20 to 24 hours; unit assumed
Protocol: as §1, §2, §3

[8] = system: Staphylococcus aureus A5177; settings: organism code BB; BHI agar, 35-37° C., 20 to 24 hours; unit assumed
Protocol: as §1, §2, §3

[9] = system: Staphylococcus aureus CMX 553; settings: organism code FF; BHI agar, 35-37° C., 20 to 24 hours; unit assumed
Protocol: as §1, §2, §3

[10] = system: Staphylococcus aureus CMX 642A; settings: organism code DD; BHI agar, 35-37° C., 20 to 24 hours; unit assumed
Protocol: as §1, §2, §3

Candida albicans CCH 442 = settings: organism code TT; BHI agar, 35-37° C., 20 to 24 hours; unit assumed
Protocol: as §1, §2, §3

Escherichia coli JUHL = settings: organism code QQ; BHI agar, 35-37° C., 20 to 24 hours; unit assumed
Protocol: as §1, §2, §3

[11] = system: Staphylococcus aureus A-5278; settings: organism code CC; BHI agar, 35-37° C., 20 to 24 hours; unit assumed
Protocol: as §1, §2, §3

[12] = system: Streptococcus agalactiae CMX 508; settings: organism code KK; BHI agar, 35-37° C., 20 to 24 hours; unit assumed
Protocol: as §1, §2, §3

[13] = system: Streptococcus bovis A-5169; settings: organism code JJ; BHI agar, 35-37° C., 20 to 24 hours; unit assumed
Protocol: as §1, §2, §3

[14] = system: Streptococcus pyogenes EES61; settings: organism code LL; BHI agar, 35-37° C., 20 to 24 hours; unit assumed
Protocol: as §1, §2, §3

[15] = system: Haemophilis Influenzae DILL AMP R; settings: organism code WW; BHI agar, 35-37° C., 20 to 24 hours; unit assumed
Protocol: as §1, §2, §3

[16] = system: Mycobacterium smegmatis ATCC 114; settings: organism code UU; BHI agar, 35-37° C., 20 to 24 hours; unit assumed
Protocol: as §1, §2, §3

[17] = system: Staphylococcus aureus 1775; settings: organism code GG; BHI agar, 35-37° C., 20 to 24 hours; unit assumed
Protocol: as §1, §2, §3

[18] = system: Streptococcus Pneumonia 5649; settings: organism code ZZA; BHI agar, 35-37° C., 20 to 24 hours; unit assumed
Protocol: as §1, §2, §3

[19] = system: Streptococcus Pneumonia 5979; settings: organism code ZZ; BHI agar, 35-37° C., 20 to 24 hours; unit assumed
Protocol: as §1, §2, §3

[20] = system: Streptococcus Pneumonia ATCC6303; settings: organism code XX; BHI agar, 35-37° C., 20 to 24 hours; unit assumed
Protocol: as §1, §2, §3

[21] = system: Streptococcus Pneumonia GYR 1171; settings: organism code YY; BHI agar, 35-37° C., 20 to 24 hours; unit assumed
Protocol: as §1, §2, §3

[22] = system: Streptococcus pyogenes 930; settings: organism code MM; BHI agar, 35-37° C., 20 to 24 hours; unit assumed
Protocol: as §1, §2, §3

SMILES	MIC (Escherichia coli SS) [µg/mL]	MIC [1] [µg/mL]	MIC [2] [µg/mL]	MIC [3] [µg/mL]	MIC [4] [µg/mL]	MIC [5] [µg/mL]	MIC [7] [µg/mL]	MIC [8] [µg/mL]	MIC (Candida albicans CCH 442) [µg/mL]	MIC (Escherichia coli JUHL) [µg/mL]	MIC [11] [µg/mL]	MIC [12] [µg/mL]	MIC [13] [µg/mL]	MIC [14] [µg/mL]	MIC [15] [µg/mL]	MIC [16] [µg/mL]	MIC [17] [µg/mL]	MIC [18] [µg/mL]	MIC [19] [µg/mL]	MIC [20] [µg/mL]	further results
CC[C@H]1OC(=O)[C@H](C)C(=O)[C@H](C)[C@@H](O[C@@H]2O[C@H](C)C[C@H](N(C)C)[C@H]2O)[C@](C)(OCC#Cc2ccc(-c3ccccn3)s2)C[C@@H](C)C(=O)[C@H](C)[C@H]2NC(=O)O[C@@]21C [Example 1]	0.1 (≈ 0.126 µM)	0.1 (≈ 0.126 µM)	0.05 (≈ 0.0628 µM)	0.1 (≈ 0.126 µM)	0.1 (≈ 0.126 µM)	0.1 (≈ 0.126 µM)	–	–	–	–	–	–	–	–	–	–	–	–	–	–	–
CC[C@H]1OC(=O)[C@H](C)C(=O)[C@H](C)[C@@H](O[C@@H]2O[C@H](C)C[C@H](N(C)C)[C@H]2O)[C@](C)(OCC#Cc2ccc(-c3cccnc3)s2)C[C@@H](C)C(=O)[C@H](C)[C@H]2NC(=O)O[C@@]21C [Example 2]	0.1 (≈ 0.126 µM)	0.1 (≈ 0.126 µM)	0.05 (≈ 0.0628 µM)	0.05 (≈ 0.0628 µM)	0.05 (≈ 0.0628 µM)	0.1 (≈ 0.126 µM)	0.05 (≈ 0.0628 µM)	0.05 (≈ 0.0628 µM)	–	–	–	–	–	–	–	–	–	–	–	–	MIC [6]: 0.05 µg/mL (≈ 0.0628 µM); MIC [9]: 0.05 µg/mL (≈ 0.0628 µM); MIC [10]: 0.05 µg/mL (≈ 0.0628 µM)
CC[C@H]1OC(=O)[C@H](C)C(=O)[C@H](C)[C@@H](O[C@@H]2O[C@H](C)C[C@H](N(C)C)[C@H]2O)[C@](C)(OCC#Cc2ccc(-c3ccncc3)s2)C[C@@H](C)C(=O)[C@H](C)[C@H]2NC(=O)O[C@@]21C [Example 3]	0.2 (≈ 0.251 µM)	0.05 (≈ 0.0628 µM)	0.05 (≈ 0.0628 µM)	–	> 100	0.1 (≈ 0.126 µM)	0.01 (≈ 0.0126 µM)	0.05 (≈ 0.0628 µM)	> 100	100 (≈ 126 µM)	> 100	≤ 0.05	≤ 0.05	≤ 0.05	–	–	–	–	–	–	MIC [10]: 0.1 µg/mL (≈ 0.126 µM)
CC[C@H]1OC(=O)[C@H](C)C(=O)[C@H](C)[C@@H](O[C@@H]2O[C@H](C)C[C@H](N(C)C)[C@H]2O)[C@](C)(OCC#Cc2ccc(-c3cscn3)s2)C[C@@H](C)C(=O)[C@H](C)[C@H]2NC(=O)O[C@@]21C [Example 30]	0.1 (≈ 0.125 µM)	0.1 (≈ 0.125 µM)	0.02 (≈ 0.0249 µM)	0.05 (≈ 0.0623 µM)	0.05 (≈ 0.0623 µM)	0.1 (≈ 0.125 µM)	0.01 (≈ 0.0125 µM)	0.02 (≈ 0.0249 µM)	> 100	12.5 (≈ 15.6 µM)	> 100	0.02 (≈ 0.0249 µM)	≤ 0.005	0.02 (≈ 0.0249 µM)	2 (≈ 2.49 µM)	0.39 (≈ 0.486 µM)	> 100	0.25 (≈ 0.312 µM)	1 (≈ 1.25 µM)	≤ 0.004	MIC [21]: ≤ 0.004 µg/mL; MIC [22]: 6.2 µg/mL (≈ 7.73 µM)
CC[C@H]1OC(=O)[C@H](C)C(=O)[C@H](C)[C@@H](O[C@@H]2O[C@H](C)C[C@H](N(C)C)[C@H]2O)[C@](C)(OCC#Cc2ccc(-c3ccccn3)s2)C[C@@H](C)C2=NCCN3C(=O)O[C@@]1(C)[C@H]3[C@H]2C [Example 35]	0.39 (≈ 0.475 µM)	0.2 (≈ 0.244 µM)	0.05 (≈ 0.0609 µM)	0.2 (≈ 0.244 µM)	0.1 (≈ 0.122 µM)	0.2 (≈ 0.244 µM)	0.02 (≈ 0.0244 µM)	0.1 (≈ 0.122 µM)	> 100	25 (≈ 30.4 µM)	> 100	0.05 (≈ 0.0609 µM)	0.01 (≈ 0.0122 µM)	0.02 (≈ 0.0244 µM)	4 (≈ 4.87 µM)	0.2 (≈ 0.244 µM)	> 100	0.25 (≈ 0.304 µM)	4 (≈ 4.87 µM)	≤ 0.004	MIC [21]: ≤ 0.004 µg/mL; MIC [22]: 6.2 µg/mL (≈ 7.55 µM)
CC[C@H]1OC(=O)[C@H](C)C(=O)[C@H](C)[C@@H](O[C@@H]2O[C@H](C)C[C@H](N(C)C)[C@H]2O)[C@](C)(OCC#Cc2ccc(-c3ccccn3)s2)C[C@@H](C)C(=O)[C@H](C)[C@H]2N(N)C(=O)O[C@]12C [Example 36]	0.2 (≈ 0.247 µM)	0.1 (≈ 0.123 µM)	0.05 (≈ 0.0617 µM)	0.1 (≈ 0.123 µM)	0.1 (≈ 0.123 µM)	0.39 (≈ 0.481 µM)	–	0.05 (≈ 0.0617 µM)	> 100	–	> 100	–	–	–	–	1.56 (≈ 1.92 µM)	> 100	–	–	–	–
CC[C@H]1OC(=O)[C@H](C)C(=O)[C@H](C)[C@@H](O[C@@H]2O[C@H](C)C[C@H](N(C)C)[C@H]2O)[C@](C)(OC/C=C/c2ccc(-c3ccncn3)s2)C[C@@H](C)C(=O)[C@H](C)[C@H]2NC(=O)O[C@@]21C [Example 64]	0.39 (≈ 0.488 µM)	0.2 (≈ 0.25 µM)	0.05 (≈ 0.0626 µM)	0.05 (≈ 0.0626 µM)	0.05 (≈ 0.0626 µM)	0.1 (≈ 0.125 µM)	0.01 (≈ 0.0125 µM)	0.05 (≈ 0.0626 µM)	> 100	50 (≈ 62.6 µM)	> 100	0.02 (≈ 0.025 µM)	≤ 0.005	0.01 (≈ 0.0125 µM)	2 (≈ 2.5 µM)	0.78 (≈ 0.976 µM)	> 100	0.25 (≈ 0.313 µM)	2 (≈ 2.5 µM)	≤ 0.004	MIC [21]: ≤ 0.004 µg/mL; MIC [22]: 3.1 µg/mL (≈ 3.88 µM)
